# Laboratory results as given in patent US20070116782A1, “USE OF RARE EARTH COMPOUNDS FOR THE PREVENTION OF KIDNEY STONE DISEASE” (SHIRE INT[…] B.V., priority 2001, published 2007).
# Read-outs that look alike come from different tables or passages of the source.
# Key:
# [1] = Protocol: (§1) In order to assess removal of oxalate from a stock solution by lanthanum carbonate, an oxalate binding assay was developed. […] Further, the buffer conditions were designed to mimic the conditions present in the stomach and in the small intestine. Briefly, 50 mL of a stock sodium oxalate solution containing 8.5 g/L sodium chloride was adjusted to the desired pH using 5N HCl and the Mettler-Toledo DL58 autotitrator. Various combinations of oxalate and lanthanum carbonate concentrations were tested to determine which would maximize oxalate removal. Prior to the addition of the desired amount of lanthanum carbonate, a 2 mL sample was taken to act as a zero time point sample. The volume of buffer was made up to 50 mL again by adding 2 mL of stock oxalate buffer back to the pH adjusted buffer and the lanthanum carbonate was added. […] In addition, samples were assayed at 590 nm in a Falcon 96-well microplate using the Molecular Devices Spectramax 190 plate reader.
# In order to maximize the accuracy of the results, the filtered samples were assayed at a 1/20 dilution.
# The procedure described above was repeated at various pH's in the range of 3-7.
# [2] = 0.1 M compound, 0.01 M oxalate, 0.1 M phosphate (10-fold excess)
# Protocol: In addition, samples were assayed at 590 nm in a Falcon 96-well microplate using the Molecular Devices Spectramax 190 plate reader.
# [3] = 0.1 M compound; 0.1 M phosphate, 0.01 M oxalate; pH 3 gradually increased to pH 7
# Description: In order to simulate the passing of lanthanum oxalate through the digestive system, a final experiment was designed which would study both oxalate and phosphate removal as the pH changed from pH 3 (i.e. stomach pH) to pH 7 (i.e. approximate intestinal pH).
# Removal of both oxalate and phosphate were monitored for ten minutes. […] Samples were taken at pH 4, 5, 6, and 7 in order to assess changes in the amount of oxalate and phosphate present in the solution.
# [4] = Oxalate binding assay of Example 1 with pH maintained with 1N NaOH (chlorides, acetates); conditions: pH 7, pH maintained with 1N NaOH
# Protocol: as §1
# [5] = pH 7, 0.1 M compound, 0.01 M sodium oxalate, 8.5 g/L sodium chloride
smiles,measurement,setting,value
O=C([O-])[O-].O=C([O-])[O-].O=C([O-])[O-].[Ce+3].[Ce+3] [cerium carbonate],oxalate binding,"[1]; pH 3 (compared with pH 7), 0.1 M compound",less effective
same,oxalate binding compared with 0.1 M lanthanum carbonate,"[1]; pH 7, 0.1 M compound",as effective as 0.1 M lanthanum carbonate
O.O.O.O.O.O=C([O-])[O-].O=C([O-])[O-].O=C([O-])[O-].[La+3].[La+3] [lanthanum carbonate pentahydrate],oxalate binding,[1]; [5],can effectively bind oxalate
same,competitive binding of oxalate vs phosphate,[2]; pH 3.0,Preferential binding of phosphate
same,competitive binding of oxalate vs phosphate,[2]; pH 7.0,preferentially bind oxalate over phosphate
O.O.O.O.O=C([O-])[O-].O=C([O-])[O-].O=C([O-])[O-].[La+3].[La+3] [lanthanum carbonate tetrahydrate],oxalate binding,[1]; [5],can effectively bind oxalate
same,oxalate binding at various pH,[1]; pH range 3-7,can bind oxalate in this pH range (3-7) with preferential binding at pH 6-7
O=C([O-])[O-].O=C([O-])[O-].O=C([O-])[O-].[La+3].[La+3] [lanthanum carbonate],oxalate binding in the presence of excess phosphate during pH transition,[3],can successfully bind oxalate
[Cl][La]([Cl])[Cl] [lanthanum chloride],oxalate binding,[4],binds oxalate quite rapidly
